Laboratory results reported in patent US20100210532A1, “USE OF NEUROPEPTIDE SF, ALONE OR IN COMBINATION WITH GLP-2, AS A THERAPEUTIC AGENT” (priority 2007, published 2010).
Where no end group is shown, it is not given here.

How the values were obtained:
[1] = system: HIV-1IIIB; experiment: HIV-1 antiviral assay in CEM-SS cells (MTS readout); details: positive controls of the HIV-1 assay
[2] = system: HCMV strain AD169; experiment: HCMV plaque formation assay in MRC-5 cells; details: for inhibition of HCMV plaque formation as compared to the virus control experiment: 10 micrograms per ml, MRC-5 cells, 7-10 days, combination 0.95 mole peptide 1 and 1.05 mole peptide 2
[3] = system: hepatitis B virus (HBV) ayw strain; experiment: HBV experimental assay system, HepG2-2.2.15 cells, secreted HBV DNA by TaqMan PCR; type: cell-based; details: 10 micrograms per ml, six days, combination 0.95 mole peptide 1 and 1.05 mole peptide 2
[4] = system: Interferon-γ (IFN-γ); experiment: Th1/Th2 cytokine profiling assay, IFN-γ; type: cell-based, mouse; details: 10 micrograms per ml, Ovalbumin-restimulated Balb/c spleen cells, 72 hours
Text: (§1) The Balb/c mice (originated in 1923, it is a popular strain and is used in many different research disciplines. […] On day 50, spleens of the mice were harvested (3 weeks after last boost with Ovalbumin). […] This kit can be used to measure Interleukin-2 (IL-2), Interleukin-4 (IL-4), Interleukin-5 (IL-5), Interferon-γ (IFN-γ), and Tumor Necrosis Factor-α (TNF-α) protein levels in a single sample. The kit performance has been optimized for analysis of physiologically relevant concentrations ([…] levels) of specific cytokine proteins in tissue culture supernatants and serum samples.

[5] = system: Human A549 cells; experiment: Apoptosis prevention assay (C2 ceramide, Annexin-5); type: cell-based; details: 10 micrograms per ml, 30 min pretreatment
[6] = system: Interleukin-2 (IL-2); experiment: Th1/Th2 cytokine profiling assay, IL-2; type: cell-based, mouse; details: 10 micrograms per ml, Ovalbumin-restimulated Balb/c spleen cells, 72 hours; for production of IL-2 in murine spleen cells, induced by: combination 0.95 mole peptide 1 and 1.05 mole peptide 2
Text: as §1

[7] = system: Interleukin-5 (IL-5); experiment: Th1/Th2 cytokine profiling assay, IL-5; type: cell-based, mouse; details: 10 micrograms per ml, Ovalbumin-restimulated Balb/c spleen cells, 72 hours; for change of the production of IL-5 in murine spleen cells: combination 0.95 mole peptide 1 and 1.05 mole peptide 2
Text: as §1

[8] = system: Tumor Necrosis Factor-α (TNF-α); experiment: Th1/Th2 cytokine profiling assay, TNF-α; type: cell-based, mouse; details: 10 micrograms per ml, Ovalbumin-restimulated Balb/c spleen cells, 72 hours; for production of TNF-alpha in murine spleen cells, induced by: combination 0.95 mole peptide 1 and 1.05 mole peptide 2
Text: as §1

[9] = system: Primary Human endothelial cells (HUVEC); experiment: Endothelial cell migration assay; type: cell-based; details: 10 micrograms per ml, 22 hours
[10] = system: Interleukin-4 (IL-4); experiment: Th1/Th2 cytokine profiling assay, IL-4; type: cell-based, mouse; details: 10 micrograms per ml, Ovalbumin-restimulated Balb/c spleen cells, 72 hours; for production of IL-4 in murine spleen cells, induced by: combination 0.95 mole peptide 1 and 1.05 mole peptide 2
Text: as §1

[11] = system: HUVEC; experiment: Endothelial tube formation assay; type: cell-based, human; details: 10 micrograms per ml, 20 hours
Description: The endothelial tube formation assay is based on the ability of endothelial cells to form three-dimensional capillary-like tubular structures when cultured on a gel of basement membrane extract. The endothelial tube formation assay represents a powerful model for studying inhibition and induction of angiogenesis. Pre-labeled HUVEC with Calcein AM were seeded in a 96-well culture plate coated with extracellular metrix (Chemicon international Cat. ECM625) and treated with test peptides-10 micrograms per ml-in full growth medium. […] control was vehicle only. […] Duplicate wells for each treatment were photographed and quantitatevily analyzed for an average tubule length using image analysis software ImageProPlus. Raw data were expressed as average tubule […]±standard deviation. Statistic p values were computed using the Student's t-test.

Compound | antiviral activity of positive control compounds [1] | antiviral activity of positive control compound ([2]; positive control of the HCMV assay) | inhibition of HBV replication as compared to the virus control infection [3] [%] | IFNγ spleen cells; TH1 response (% of control) [4] | production of IFN-γ in murine spleen cells, induced by ([4]; combination 0.95 mole peptide 1 and 1.05 mole peptide 2) [%] | reduction of the ceramide-induced apoptosis on human lung cells [5] | IL-2 spleen cells (% of control) [6] | production of IL-2 in murine spleen cells, induced by [6] | IL-5 spleen cells; TH2 response (% of control) [7] | change of the production of IL-5 in murine spleen cells [7] | TNF-a spleen cells; TH1 response (% of control) [8] | production of TNF-alpha in murine spleen cells, induced by [8] | inhibition of HCMV plaque formation as compared to the virus control experiment [2] [%] | inhibition of the migration of human endothelial cells [9] | IL-4 spleen cells; TH2 response (% of control) [10] | production of IL-4 in murine spleen cells, induced by [10] | inhibition of the tube formation of human endothelial cells [11] [%] | production of IFN-γ in murine spleen cells, decreased by [4] [%]
Cc1cn([C@H]2C[C@H](N=[N+]=[N-])[C@@H](CO)O2)c(=O)[nH]c1=O [AZT] | expected levels of antiviral activity |  |  |  |  |  |  |  |  |  |  |  |  |  |  |  |  | 
Nc1nc(O)c2ncn(COC(CO)CO)c2n1 [Ganciclovir, reference compound] |  | expected levels of antiviral activity |  |  |  |  |  |  |  |  |  |  |  |  |  |  |  | 
CC(C)(C)NC(=O)[C@@H]1CN(Cc2cccnc2)CCN1C[C@@H](O)C[C@@H](Cc1ccccc1)C(=O)N[C@H]1c2ccccc2C[C@H]1O [indinavir] | expected levels of antiviral activity |  |  |  |  |  |  |  |  |  |  |  |  |  |  |  |  | 
His-Ala-Asp-Gly-Ser-Phe-Ser-Asp-Glu-Met-Asn-Thr-Ile-Leu-Asp-Asn-Leu-Ala-Ala-Arg-Asp-Phe-Ile-Asn-Trp-Leu-Ile-Gln-Thr-Lys-Ile-Thr-Asp-OH [Peptide 2] |  |  | 59.2 | 132.7 % of control | 32.7 | did not reduce | 183.3 % of control | 83.3% | 108.4 % of control | did not significantly change | 143.7 % of control | 43.7% | 18.8 | did not inhibit | 104.4 % of control | did not significantly change | 12 | 
Ser-Gln-Ala-Phe-Leu-Phe-Gln-Pro-Gln-Arg-Phe-NH2 (SQAFLFQPQRF-NH2) [Peptide 1] |  |  | 16.7 | 68.0 % of control |  | 16.45% | 112.4 % of control | did not significantly change | 91.6 % of control | did not significantly change | 106.3 % of control | did not significantly change | 31.3 | 33% | 242.2 % of control | 142.2% | 19 | 32.0
